Measured values as given in patent US20210388012A1, “METHODS AND COMPOSITIONS FOR PRODRUG FORMS OF SPECTINOMYCIN AND SPECTINAMIDE ANALOGS” (priority 2018, published 2021).

Legend:
[1] = molecular target: Mycobacterium smegmatis 70S bacterial ribosomes; assay: Ribosomal inhibition assay (luciferase-based protein synthesis inhibition); assay type: biochemical; details: purified M. smegmatis 70S ribosomes, firefly luciferase mRNA
Procedure: In vitro activity was also assessed using a ribosomal inhibition assay. Briefly, luciferase-based protein synthesis inhibition assays were performed in translation reaction as described previously (Bruell, et al. Biochemistry. 2008 47 (34), 8828-8839), using purified Mycobacterium smegmatis 70S bacterial ribosomes and firefly luciferase mRNA prepared in vitro using T7 RNA polymerase. IC50 values represent the drug concentration that inhibits luciferase activity by 50%.

M. tuberculosis H37Rv = assay: Minimum inhibitory concentration (MIC), microbroth dilution; assay type: cell-based; details: Mycobacterium tuberculosis, H37RV, 168 h, read-out: MIC (H37Rv)
[2] = Metabolic stability, human liver microsomal degradation; assay type: in vitro ADME; details: human liver microsomes; read-out: Metabolic Stability (Human) t½ (converted)
Procedure: (§1) LC-MS Method 2. Chromatographic separation was performed on an Acquity UPLC BEH C18 1.7 μm, 2.1×50 mm column (Waters Corporation, Milford, Mass.) or a Luna Omega 1.6 μm C18, 2.1×50 mm column (Phenomenex, Torrance, Calif.) using an Acquity ultra performance liquid chromatography system. Data were acquired using Masslynx v. 4.1 and analyzed using the Openlynx software suite. This was coupled to an Acquity photodiode array detector, which acquired UV data from 210-400 nm. The flow was then split, with half directed to an evaporative light scattering detector (ELSD) and half to an SQ mass spectrometer. The total flow rate was 1 mL/min. The sample injection volume was 10 μL. The UPLC column was maintained at 60° C. and the gradient program with either basic mobile phase (A1, 10 mM ammonium bicarbonate in MilliQ H2O; B1, 0.1% formic acid in acetonitrile) or formic mobile phase (A1, 0.1% formic acid in MilliQ H2O; B1, 0.1% formic acid in acetonitrile) based on the compounds' physical and chemical properties. The mass spectrometer was operated in positive-ion mode with electrospray ionization. The conditions were as follows; capillary voltage 3.4 kV, cone voltage 30 V, source temperature 130° C., desolvation temperature 400° C., desolvation gas 800 L/hr, cone gas 100 L/hr. A full scan range from m/z=110-1000 in 0.2 s was used to acquire MS data. The ELSD-drift tube temperature was set at 52° C.
The stability of compounds to human liver microsomal degradation, i.e., metabolic stability, was determined as described previously (see North, E. J., et al, Bioorg. Med. Chem. (2013) 21(9):2587-2599) and the rate of degradation was monitored by LC-MS analysis using multiple sampled time points as described herein above in LC-MS Method 2. Metabolic stability was evaluated via the half-life from least squares fit of the concentration remaining at the time points based on first-order kinetics.

in vitro = in vitro ADME; details: human plasma, 37° C., read-out: Plasma Stability (Human) t½ (converted)
Procedure: as §1
Plasma stability was determined after incubation in human plasma for various incubation time, i.e., incubation times of 0, 3, 24, and 48 hour were used. DMSO stock solutions of test compounds were prepared at 10 mM concentration. 1.8 μL of each test compound was each added directly to 1.8 mL of human plasma to get the final concentration of 10 μM. This compound/matrix was mixed and 70 μL was transferred to 4 time points plates (each in triplicate wells). […] The plasma stability was evaluated via the half-life from least-squares fit of the multiple time points based on first-order kinetics.

SMILES: CN[C@@H]1[C@H](O)[C@H](NC)[C@H]2O[C@]3(O)[C@H](O[C@@H]2[C@H]1O)O[C@H](C)C[C@H]3NC(=O)Cc1ccc(OP(=O)(O)O)cn1 [Compound 3408, 6-(2-oxo-2-(((2R,4R,4a5,5aR,6S,7S,8R,9S,9aR,10aS)-4a,7,9-trihydroxy-2-methyl-6,8-bis(methylamino)decahydro-2H-benzo[b]pyrano[2,3-e][1,4]dioxin-4-yl)amino)ethyl)pyridin-3-yl dihydrogen phosphate]
- IC50 (M. smegmatis) [1]: 6.70 µg/mL
- MIC (M. tuberculosis H37Rv): 100 µg/mL
- half-life [2]: < 5 min
- half-life at 10 µM (in vitro): < 5 min
